Here are results for 26 compounds from patent publication US20100267796A1, “THERAPEUTIC AGENT FOR IRRITABLE BOWEL SYNDROME” (KYOWA HAKKO KOGYO CO., LTD., priority 2006, published 2010).

The test system of assay [1] is restraint stress-induced defecation. Nature of the assay: Action on restraint stress-induced defecation. To be noted: measured 1 hour after stress initiation, rats. Format: in vivo, male Wistar rats. How it is done: An experiment was carried out according to the method of Kishibayashi et al. [Japanese Journal of Pharmacology, Vol. 69, No. 4, pp. 495-502 (1993)]. In the experiment, male Wistar rats aged 6 to 7 weeks (supplied from Charles River Laboratories Japan, Inc.) were used. […] The rats were lightly anesthetized with diethyl ether, and the thoracic trunk and the forelimbs were wrapped with a tape to produce mild stress. One hour after stress initiation, the wet weight of fecal pellets was measured. Each drug solution was orally administered 1 hour before restraint stress. A test compound was suspended at a concentration of 2 mg/mL in an aqueous solution of 0.5 w/v % methyl cellulose 400 cP and orally administered at a volume of 5 mL/kg (at a dose of 10 mg/kg). In a control, an aqueous solution of 0.5 w/v % methyl cellulose 400 cP was administered. Ten rats were used in each group. […] YM060, a serotonin 5-HT3 receptor antagonist [The Journal of Pharmacology and Experimental Therapeutics, Vol. 259, No. 2, pp. 815-819 (1991), Astellas Pharma. Inc., online, internet (URL: […].com/jp/companry/news/2006/pdf/060131.pdf)], which is being applied as a therapeutic agent for irritable bowel syndrome, was administered at a dose of 0.1 mg/kg.

Assay [2] deals with adenosine uptake in HEK293 cells. Nature of the assay: Adenosine uptake inhibitory activity in HEK293 cells ([3H]adenosine uptake). Format: cell-based. To be noted: for activity at 0.05 µM: 50 nmol/L compound, n=2; for activity at 0.5 µM: 500 nmol/L compound. Here is the method: A test was conducted according to the method of Leung et al. [Biochemical Pharmacology, Vol. 70, pp. 355-362 (2005)]. HEK293 cells (ATCC, Registration No. CRL-1537) were subcultured in a Dulbecco's modified Eagle's medium (manufactured by Invitrogen Corporation) containing 10% of fatal calf serum in a CO2 incubator using a poly-L-lysine-coated 10-cm dish (manufactured by Asahi Techno Glass Corporation). The cultured cells were seeded in a poly-L-lysine-coated 24-well plate (manufactured by Asahi Techno Glass Corporation) and cultured until the cells become confluent. […] After incubation at room temperature for 15 minutes, 0.2 mL of a Na^+-free buffer containing 100 nmol/L of [^3H] adenosine (manufactured by GE Health Care Bioscience Corporation) and each compound at each of 50 nmol/L and 500 nmol/L was added to each well. After 1 minute, the reaction solution was removed with an aspirator, and the wells were washed twice with 0.5 mL of ice-cooled PBS (phosphate-buffered saline). Then, 0.5 mL of PBS containing 5% Triton X-100 was added to each well, and the cells were scraped with a scraper. The solution in each well was homogenized by passing through a 20 G injection needle ten times and transferred to a scintillation vial containing 4 mL of clear sol (manufactured by Nacalai Tesque Inc.). Further, the wells were washed with 0.5 mL of PBS containing 5% Triton X-100, and the washing solution was added to the same vial. After sufficient agitation, radioactivity was measured using a liquid scintillation counter (Aloka Co., Ltd., LSC-3500). A relative value to 100% of an uptake of a control was indicated by percentage.

The mark [3] stands for this setting: 10 mg/kg p.o. 1 hour before restraint stress, n=10, control of each sub-table 1.06-1.71 g.
[4] abbreviates: Homo sapiens, 1 min, [3H]adenosine uptake relative to 100% of control, HEK293 cells.
Where [5] appears, read: 300 mg/kg p.o. 1 hour before restraint stress.

Molecules are shown by their SMILES.

Regarding `O=C1c2sccc2CS(=O)(=O)c2cccc(NCc3ccccc3)c21` [Compound 5-3, 9-Benzylamino-5,5-dioxo-4,10-dihydrothieno[3,2-c][1]benzothiepin-10-one], the “Wet weight of fecal pellets” value in assay [1] (setting [3]) was 0.41 ± 0.17 g. In addition, in assay [2] (setting [4]), the activity at 0.05 µM was determined as 63% and the activity at 0.5 µM worked out at 30%.
In the case of `CCOc1cc2nc(N3CCOCC3)nc(N3CCC(n4c(=O)c5cc(C)ccc5n(C)c4=O)CC3)c2cc1OCC` [KF24345, reference compound], the “Wet weight of fecal pellets” value in assay [1] (setting [3]) was determined as 0.48 ± 0.14 g.
Regarding `COc1ccccc1CNc1cccc2c1C(=O)c1sccc1CS2(=O)=O` [Compound 5-4, 5,5-Dioxo-9-(2-methoxybenzylamino)-4,10-dihydrothieno[3,2-c][1]benzothiepin-10-one], in assay [2] (setting [4]), the activity at 0.05 µM is 72% and the activity at 0.5 µM stood at 42%.
For `OCCN(CCO)c1nc(N2CCCCC2)c2nc(N(CCO)CCO)nc(N3CCCCC3)c2n1` [Dipyridamole, reference compound], in assay [1] (setting [5]), the “Wet weight of fecal pellets” value turned out to be 0.59 ± 0.15 g.
With `O=C(Nc1cccc2c1C(=O)c1sccc1CS2(=O)=O)c1ccco1` [Compound 1-8], the “Wet weight of fecal pellets” value in assay [1] (setting [3]) came out at 0.66 ± 0.12 g. For the same compound, in assay [2] (setting [4]), the activity at 0.05 µM was found to be 79% and the activity at 0.5 µM was 44%.
Take `O=C1c2sccc2CS(=O)(=O)c2cccc(Nc3cc(Cl)ccc3O)c21` [Compound 5-2, 9-(5-Chloro-2-hydroxyphenylamino)-5,5-dioxo-4,10-dihydrothieno[3,2-c][1]benzothiepin-10-one]: in assay [1] (setting [3]), the “Wet weight of fecal pellets” value is reported as 0.46 ± 0.18 g. In assay [2] (setting [4]), this compound displayed an activity at 0.05 µM of 80% and an activity at 0.5 µM of 44%.
With `Cn1cc(C(=O)[C@@H]2CCc3nc[nH]c3C2)c2ccccc21` [YM060, reference compound], the “Wet weight of fecal pellets” value in assay [1] (0.1 mg/kg 1 hour before restraint stress, control 1.24 ± 0.23 g) was 0.43 ± 0.11 g.
Regarding `CCC(O)(CC)C(=O)Nc1cccc2c1C(=O)c1sccc1CS2(=O)=O` [Compound 1-4, 5,5-Dioxo-9-(2-ethyl-2-hydroxybutanoylamino)-4,10-dihydrothieno[3,2-c][1]benzothiepin-10-one], the “Wet weight of fecal pellets” value in assay [1] (setting [3]) was found to be 0.44 ± 0.19 g. In assay [2] (setting [4]), this compound showed an activity at 0.05 µM of 73% and an activity at 0.5 µM of 34%.
For the compound `NC(=O)C1CN(CCCCC(c2ccc(F)cc2)c2ccc(F)cc2)CCN1CC(=O)Nc1c(Cl)cc(N)cc1Cl` (stereo not shown) [Draflazine, reference compound], the “Wet weight of fecal pellets” value in assay [1] (100 mg/kg p.o. 1 hour before restraint stress, control 1.06 ± 0.11 g) was 0.43 ± 0.13 g.
For the compound `CC(O)(C(=O)Nc1ccc(F)c2c1C(=O)c1sccc1CS2(=O)=O)C(F)(F)F` (stereo not shown) [Compound 3-1], the “Wet weight of fecal pellets” value in assay [1] (setting [3]) is reported as 0.41 ± 0.16 g. In assay [2] (setting [4]), this compound showed an activity at 0.05 µM of 96% and an activity at 0.5 µM of 63%.
For `CC(C)(C)C(=O)Nc1cccc2c1C(=O)c1sccc1CS2(=O)=O` [Compound 1-5], in assay [1] (setting [3]), the “Wet weight of fecal pellets” value is on record as 0.97 ± 0.16 g. In assay [2] (setting [4]), the activity at 0.05 µM was 90% and the activity at 0.5 µM is 55%.
Turning to `COC(=O)C(CC(C)C)Nc1cccc2c1C(=O)c1sccc1CS2(=O)=O` (stereo not shown) [Compound 5-7, 5,5-Dioxo-9-{[1-(methoxycarbonyl)-3-methylbutyl]amino}-4,10-dihydrothieno[3,2-c][1]benzothiepin-10-one], in assay [2] (setting [4]), the activity at 0.05 µM was found to be 67% and the activity at 0.5 µM is 30%.
Take `COc1cc(C(=O)OCCCN2CCCN(CCCOC(=O)c3cc(OC)c(OC)c(OC)c3)CC2)cc(OC)c1OC` [Dilazep, reference compound]: the “Wet weight of fecal pellets” value in assay [1] (setting [5]) stood at 0.84 ± 0.17 g.
As to `CC(O)(C(=O)Nc1ccc(Br)c2c1C(=O)c1sccc1CS2(=O)=O)C(F)(F)F` (stereo not shown) [Compound 3-3, 6-Bromo-5,5-dioxo-9-(3,3,3-trifluoro-2-hydroxy-2-methylpropanoylamino)-4,10-dihydrothieno[3,2-c][1]benzothiepin-10-one], the “Wet weight of fecal pellets” value in assay [1] (setting [3]) was 0.81 ± 0.22 g.
In assay [2] (setting [4]), `CCOC(=O)CNc1cccc2c1C(=O)c1sccc1CS2(=O)=O` [Compound 5-5, 5,5-Dioxo-9-ethoxycarbonylmethylamino-4,10-dihydrothieno[3,2-c][1]benzothiepin-10-one] had an activity at 0.05 µM of 98% and an activity at 0.5 µM of 68%.
Consider `CCOC(=O)C(C)Nc1cccc2c1C(=O)c1sccc1CS2(=O)=O` (stereo not shown) [Compound 5-6, 5,5-Dioxo-9-[1-(ethoxycarbonyl)ethylamino]-4,10-dihydrothieno[3,2-c][1]benzothiepin-10-one], for which, in assay [2] (setting [4]), the activity at 0.05 µM stood at 80% and the activity at 0.5 µM was found to be 50%.
Consider `CC(=O)C(C)(C)C(=O)Nc1cccc2c1C(=O)c1sccc1CS2(=O)=O` [Compound 1-10, 5,5-Dioxo-9-(2,2-dimethyl-3-oxobutanoylamino)-4,0-dihydrothieno[3,2-c][1]benzothiepin-10-one], for which, in assay [2] (setting [4]), the activity at 0.05 µM was 94% and the activity at 0.5 µM amounted to 63%.
With `O=C(CC(O)(C(F)(F)F)C(F)(F)F)Nc1cccc2c1C(=O)c1sccc1CS2(=O)=O` [Compound 1-2], the “Wet weight of fecal pellets” value in assay [1] (setting [3]) is 0.78 ± 0.25 g. In assay [2] (setting [4]), this compound returned an activity at 0.05 µM of 39% and an activity at 0.5 µM of 17%.
With `CC(O)(C(=O)Nc1ccc(Cl)c2c1C(=O)c1sccc1CS2(=O)=O)C(F)(F)F` (stereo not shown) [Compound 3-2], the “Wet weight of fecal pellets” value in assay [1] (setting [3]) came to 0.53 ± 0.14 g.
For the compound `Cc1ccc(NC(=O)C(C)(O)C(F)(F)F)c2c1S(=O)(=O)Cc1ccsc1C2=O` (stereo not shown) [Compound 3-4], in assay [1] (setting [3]), the “Wet weight of fecal pellets” value amounted to 0.67 ± 0.19 g. In assay [2] (setting [4]), this compound gave an activity at 0.05 µM of 71% and an activity at 0.5 µM of 41%.
As to `O=[N+]([O-])c1ccc(CSc2ncnc3c2ncn3C2OC(CO)C(O)C2O)cc1` (stereo not shown) [Nitrobenzylthioinosine, S6-(4-nitrobenzyl)mercaptopurine riboside, reference compound], the “adenosine uptake in HEK293 cells (in words)” value in assay [2] (100 nmol/L, concentration at which only ENT-1 is inhibited) is given as “almost completely inhibited”. The activity at 0.1 µM in assay [2] (Homo sapiens, 1 min, 100 nmol/L compound, [3H]adenosine uptake relative to 100% of control, HEK293 cells) came out at 8%. Further, the activity at 0.5 µM in assay [2] (setting [4]) was 4%.
In assay [2] (setting [4]), `O=C1c2sccc2CS(=O)(=O)c2cccc(SCc3ccccc3)c21` [Compound 6-1, 9-Benzylthio-5,5-dioxo-4,10-dihydrothieno[3,2-c][1]benzothiepin-10-one] came in with an activity at 0.05 µM of 75% and an activity at 0.5 µM of 39%.
`O=C1c2sccc2CS(=O)(=O)c2cccc(Nc3ccccc3)c21` [Compound 5-1, 5,5-Dioxo-9-phenylamino-4,10-dihydrothieno[3,2-c][1]benzothiepin-10-one]: the “Wet weight of fecal pellets” value in assay [1] (setting [3]) was found to be 0.36 ± 0.16 g. In assay [2] (setting [4]), this compound displayed an activity at 0.05 µM of 91% and an activity at 0.5 µM of 60%.
In the case of `O=C1c2sccc2CS(=O)(=O)c2cccc(OCc3ccccc3)c21` [Compound 6-2, 9-Benzyloxy-5,5-dioxo-4,10-dihydrothieno[3,2-c][1]benzothiepin-10-one], in assay [2] (setting [4]), the activity at 0.05 µM is 94% and the activity at 0.5 µM was 73%.
In assay [2] (setting [4]), `COC(=O)C(Cc1ccccc1)Nc1cccc2c1C(=O)c1sccc1CS2(=O)=O` (stereo not shown) [Compound 5-8, 5,5-Dioxo-9-{[1-(methoxycarbonyl)-2-phenylethyl]amino}-4,10-dihydrothieno[3,2-c][1]benzothiepin-10-one] showed an activity at 0.05 µM of 92% and an activity at 0.5 µM of 69%.
In assay [2] (setting [4]), `O=C1c2sccc2CS(=O)(=O)c2cccc(NC(=O)C(O)C(F)(F)F)c21` (stereo not shown) [Compound 1-11, 5,5-Dioxo-9-(2-hydroxy-3,3,3-trifluoropropanoylamino)-4,10-dihydrothieno[3,2-c][1]benzothiepin-10-one] returned an activity at 0.05 µM of 82% and an activity at 0.5 µM of 46%.
